Experimental data as given in US20250011878A1, “METHOD TO DETECT RNA BIOMARKERS” (ITALFARMACO SPA, priority 2021, published 2025).

Key:
[1] = mouse, in vivo, 1000 mg/kg
PD-L1 = PD-L1 surface expression on human monocytes stimulated with TNF-α; format: cell-based
human monocytes = assay: RNAseq gene expression in purified human monocytes treated with ITF3756 and/or TNF-α; format: cell-based
Excerpt: PBMCs used for the experiments were obtained from Buffy Coats of healthy donors (all samples tested negative for transmissible diseases as required for blood transfusion) separated over a Ficoll-Hypaque gradient (Biochrom). Monocytes were purified by negative selection from 100×10^6 PBMC using Pan Monocytes Isolation Kit (Milteny) following manufacturer's instructions. By Pan Monocyte Isolation kit untouched monocytes are isolated from human PBMCs and the simultaneous enrichment of classical (CD14^++CD16^−), non classical (CD14^+CD16^++) and intermediate (CD14^++CD16^+) monocytes is achieved. Non-monocytes, such as T cells, NK cells, B cells, dendritic cells, and basophils are indirectly magnetically labeled using a cocktail of biotin-conjugated antibodies and anti-Biotin MicroBeads. Briefly, 400 μL of Buffer (PBS 1×, 0.5% BSA and 2 mM EDTA), 100 μL of FcR Blocking Reagent and 100 μL of Biotin-Antibody Cocktail were added to PBMC, previously washed with PBS by centrifugation 300×g for 5 minutes, mixed and incubate for 5 minutes in the refrigerator (2-8° C.). After incubation, 300 μL of Buffer and 200 μL of anti-biotin microbeads were added to the cells, mixed and incubate further for 10 minutes in the refrigerator. After incubation cells were processed by subsequent magnetic cell separation. Cell suspension was applied onto the column and the flow-through containing unlabeled cells, representing the enriched monocytes, was collected. Purified monocytes were washed with Buffer by centrifugation 300×g for 5 minutes and counted in PBS. Purified monocytes (1,0×10^6/ml) were pre-treated for 2 h with ITF3756 1 μM or DMSO (0.005%) in 12-well plates in 1 ml final volume of complete medium (RPMI (Biochrom), FCS 10% and penicillin/streptomycin 1× (Sigma)). The cells were then stimulated or not with TNF-α (100 ng/mL, Peprotech) for 4h. After incubation with ITF3756 and TNF-α, the cells were collected, washed with PBS by centrifugation 300×g for 5 minutes and stored at −80° C. Samples were thawed on the bench for 2 minutes and total RNA was extracted with Trizol reagent (Thermo Fisher Scientific), following manufacturer's instructions. Briefly, Trizol reagent (0.75 ml Trizol per 5-10×10^6 cells) was added to the samples and the samples were incubated at room temperature (RT) for 5 minutes. After incubation, chloroform (150 μL per 0.75 mL Trizol) was added to the samples and after 3 minutes of incubation at RT, samples were centrifuged for 12000×g for 14 minutes at 4° C. After centrifugation, the mixture separates into 3 phases and RNA remains in the aqueous phase. The aqueous phase was removed for each sample and placed in new tubes, and isopropanol (0,375 ml per 0.75 ml of Trizol) was added in each tube. Samples was incubated for 30 minutes in the refrigerator (2-8° C.). After incubation, samples were centrifugated for 12000×g for 10 minutes at 4° C., the supernatant was removed and 75% ethanol (0.75 ml per 0.75 ml of Trizol) was added to samples. Samples were centrifuged for 7500×g for 5 minutes at 4° C., and the supernatant discarded. RNA was air dried on the bench for 5-10 minutes. RNA Samples was then resuspended in water (10-50 μL). The scheme of the experimental procedures carried out to generate the RNA sequence data is represented in FIG. 1. To determine the quantity and the integrity/purity of RNA samples, check controls were first performed by the Agilent Technologies 2100 Bioanalyzer using RNA 6000 LabChip® kit (Agilent #5067-1511). The Bioanalyzer is a bio-analytical device based on a combination of microfluidic chips, voltage-induced size separation in gel filled channels and laser-induced fluorescence (LIF) detection on a miniaturized scale. The RNA Integrity Number (RIN) software algorithm allows the classification of total RNA, based on a numbering system from 1 to 10, (with 1 being the most degraded and 10 being the most intact). […] Purified samples were processed using TruSeq RNA-Seq v2 Library Preparation Kit. […]

[2] = ITF3756 1 μM in combination with TNF-α 100 ng/mL, RNAseq
[3] = ITF3756 1 μM in the presence of TNF-α 100 ng/mL, RNAseq
[4] = ITF3756 + TNFα vs vehicle-treated control (don)
[5] = M2 marker, human monocytes, ITF3756 1 μM, RNAseq
[6] = single treatment (ITF3756 1 μM or TNF-α 100 ng/mL), RNAseq, vs control
[7] = single treatment (ITF3756 1 μM), RNAseq, vs control
[8] = single treatment vs vehicle-treated control (don), monocytes 4 h, padj<0.05
[9] = versus control, not shared with TNF-α or ITF3756+TNF-α

O=C(NO)c1ccc(Cn2nnnc2-c2cccs2)cc1 [ITF3756, N-hydroxy-4-((5-(thiophen-2-yl)-1 H-tetrazol-1-yl)methyl)benzamide]
tolerability [1]: well tolerated
surface expression of PD-L1 (upregulation by TNF-α) (PD-L1): inhibited
CD40 gene expression (human monocytes; ITF3756 1 μM combined with TNF-α 100 ng/mL, RNAseq): slightly increases the upregulation of CD40 expression induced by TNF-α alone
ADA gene expression (human monocytes; [2]): upregulation
FATP1/SLC27A1 gene expression (human monocytes; [2]): the basal expression of the gene is maintained
IRF6 gene expression (human monocytes; [2]): no effect
NBEAL2 gene expression (human monocytes; [2]): increases the expression
ANXA6 gene expression (human monocytes; [3]): the upregulation is even stronger and probably synergistic
CD84 gene expression (human monocytes; [3]): downregulation is further enhanced
CD163 gene expression (human monocytes; [3]): down-modulated
CD204/MSR1 gene expression (human monocytes; [3]): strongly down-modulated
CD206/MRC1 gene expression (human monocytes; [3]): strongly down-modulated
CXCL2 gene expression (human monocytes; [3]): reverts the upregulation induce by TNF establishing a normal level of expression
LTBP4 gene expression (human monocytes; [3]): counters this downregulation
RANK/TNFRSF11a gene expression (human monocytes; [3]): downregulation of RANK/TNFRSF11a is increased compared to single treatments
STAB1 gene expression (human monocytes; [3]): synergistically reduced
Genes Down regulated (number of genes modulated) (human monocytes; [4]): 2329
Genes Up regulated (number of genes modulated) (human monocytes; [4]): 2282
MMP9 gene expression (human monocytes; ITF3756+TNF-α, compared to untreated control, RNAseq): No modulation
Fold change ADA (human monocytes; [5]): −1.9
Fold change CD163 (human monocytes; [5]): −4
Fold change CD204/MSR1 (human monocytes; [5]): −2.6
Fold change CD206/MRC1 (human monocytes; [5]): −13.3
Fold change MMP9 (human monocytes; [5]): −3.6
Fold change STAB1 (Stabilin-1/Clever-1) (human monocytes; [5]): −14
downregulation of PD-L1 (CD274) gene expression (human monocytes; cells treated with TNF-α+ITF3756, RNAseq): 59%
ADA gene expression (human monocytes; [6]): downmodulated
IRF6 gene expression (human monocytes; [6]): upregulates the expression
LTBP4 gene expression (human monocytes; [6]): upregulates the expression
MMP9 gene expression (human monocytes; single treatment (ITF3756 1 μM or TNF-α 100 ng/mL), RNAseq, vs untreated control): down-modulated
ANXA6 gene expression (human monocytes; [7]): robust upregulation
CD40 gene expression (human monocytes; [7]): upregulates
CD84 gene expression (human monocytes; [7]): strongly downregulates
CD163 gene expression (human monocytes; [7]): down-modulated
CD204/MSR1 gene expression (human monocytes; [7]): down-modulated
CD206/MRC1 gene expression (human monocytes; [7]): strongly down-modulated
CXCL2 gene expression (human monocytes; [7]): decreases the expression
CXCL3 gene expression (human monocytes; [7]): reduced the expression
FATP1/SLC27A1 gene expression (human monocytes; [7]): up-regulates the expression
NBEAL2 gene expression (human monocytes; [7]): increases the expression
RANK/TNFRSF11a gene expression (human monocytes; [7]): strong downregulation
STAB1 gene expression (human monocytes; [7]): strongly downregulated
CD276 gene expression (human monocytes; single treatment (ITF3756), vs control): down-regulated the expression
Genes Down regulated (number of genes modulated) (human monocytes; [8]): 1503
Genes Up regulated (number of genes modulated) (human monocytes; [8]): 1499
genes specifically downregulated (Venn diagram) (human monocytes; [9]): 386
genes specifically upregulated (Venn diagram) (human monocytes; [9]): 537
